Test results published in ChEMBL document CHEMBL1129866, “S1 heterocyclic thrombin inhibitors” (Bioorg Med Chem Lett, 1997).

Tests used:
[1] = target: Serine protease 1 (Homo sapiens, UniProt P07477); experiment: Tested for selectivity against trypsin
[2] = target: Coagulation factor X (Homo sapiens, UniProt P00742); experiment: Tested for selectivity against Coagulation factor X
[3] = target: Prothrombin (Homo sapiens, UniProt P00734); experiment: Tested for the binding affinity against thrombin

Chain of Coagulation factor X (P00742 41-179 limits assumed): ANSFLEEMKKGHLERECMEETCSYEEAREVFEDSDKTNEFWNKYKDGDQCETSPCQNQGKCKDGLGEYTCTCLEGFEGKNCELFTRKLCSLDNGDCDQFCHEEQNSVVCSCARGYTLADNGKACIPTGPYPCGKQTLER
Chain of Coagulation factor X (P00742 235-488 limits assumed): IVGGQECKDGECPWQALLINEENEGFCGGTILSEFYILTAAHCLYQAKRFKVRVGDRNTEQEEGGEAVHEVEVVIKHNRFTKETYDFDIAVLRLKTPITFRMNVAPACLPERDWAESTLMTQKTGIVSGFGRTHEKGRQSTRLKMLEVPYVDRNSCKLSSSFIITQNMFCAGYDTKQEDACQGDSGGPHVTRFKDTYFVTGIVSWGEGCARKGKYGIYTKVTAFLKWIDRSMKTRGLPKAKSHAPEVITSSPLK
Chain of Serine protease 1 (P07477 whole entry): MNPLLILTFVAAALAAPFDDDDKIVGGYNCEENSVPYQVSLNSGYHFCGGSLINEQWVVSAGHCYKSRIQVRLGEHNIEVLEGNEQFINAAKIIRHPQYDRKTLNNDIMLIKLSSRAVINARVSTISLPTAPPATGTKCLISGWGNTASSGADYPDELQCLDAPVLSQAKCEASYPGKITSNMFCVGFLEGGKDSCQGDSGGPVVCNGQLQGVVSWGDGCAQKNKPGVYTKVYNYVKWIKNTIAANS

Structure (SMILES)	Ki [1] [nM]	Ki [2] [nM]	Ki [3] [nM]
CC(=O)N[C@H](Cc1ccccc1)C(=O)N1CCC[C@H]1C(=O)N[C@@H](CCCn1ccnc1N)B1O[C@@H]2CC3CC(C3(C)C)[C@]2(C)O1 (stereo partly specified)	20	> 6000	1.7
CC(=O)N[C@H](Cc1ccccc1)C(=O)N1CCC[C@H]1C(=O)N[C@@H](CCCNc1cc(Cl)nc(N)n1)B1O[C@@H]2CC3CC(C3(C)C)[C@]2(C)O1 (stereo partly specified)	> 1200	> 6000	43
CC(=O)N[C@H](Cc1ccccc1)C(=O)N1CCC[C@H]1C(=O)N[C@@H](CCCNc1ccnc(N)n1)B1O[C@@H]2CC3CC(C3(C)C)[C@]2(C)O1 (stereo partly specified)			150
CCCCS(=O)(=O)N[C@H](Cc1ccccc1)C(=O)N1CCC[C@H]1C(=O)N[C@@H](CCCNc1cc(Cl)nc(N)n1)B1O[C@@H]2CC3CC(C3(C)C)[C@]2(C)O1 (stereo partly specified)	214	> 6000	2.1
CC(=O)N[C@H](Cc1ccccc1)C(=O)N1CCC[C@H]1C(=O)N[C@@H](CCCSc1ncccn1)B1O[C@@H]2CC3CC(C3(C)C)[C@]2(C)O1 (stereo partly specified)	> 1200		2000
CCCCS(=O)(=O)N[C@H](Cc1ccccc1)C(=O)N1CCC[C@H]1C(=O)N[C@@H](CCCSc1ncccn1)B1O[C@@H]2CC3CC(C3(C)C)[C@]2(C)O1 (stereo partly specified)			8.8
CCCCS(=O)(=O)N[C@H](Cc1ccccc1)C(=O)N1CCC[C@H]1C(=O)N[C@@H](CCCn1ccnc1N)B1O[C@@H]2CC3CC(C3(C)C)[C@]2(C)O1 (stereo partly specified)	40	970	3.2
CC(=O)N[C@H](Cc1ccccc1)C(=O)N1CCC[C@H]1C(=O)N[C@@H](CCCn1ncnc1[N+](=O)[O-])B1O[C@@H]2CC3CC(C3(C)C)[C@]2(C)O1 (stereo partly specified)	> 1200	> 6000	199
CC(=O)N[C@H](Cc1ccccc1)C(=O)N1CCC[C@H]1C(=O)N[C@@H](CCCn1ncnc1N)B1O[C@@H]2CC3CC(C3(C)C)[C@]2(C)O1 (stereo partly specified)	> 1200	> 6000	507
CC(=O)N[C@H](Cc1ccccc1)C(=O)N1CCC[C@H]1C(=O)N[C@@H](CCCn1ccnc1)B1O[C@@H]2CC3CC(C3(C)C)[C@]2(C)O1 (stereo partly specified)	27	6000	67
CCCCS(=O)(=O)N[C@H](Cc1ccccc1)C(=O)N1CCC[C@H]1C(=O)N[C@@H](CCCn1ccnc1[N+](=O)[O-])B1O[C@@H]2CC3CC(C3(C)C)[C@]2(C)O1 (stereo partly specified)	> 1200	6000	15
CC(=O)N[C@H](Cc1ccccc1)C(=O)N1CCC[C@H]1C(=O)N[C@@H](CCCn1ccnc1[N+](=O)[O-])B1O[C@@H]2CC3CC(C3(C)C)[C@]2(C)O1 (stereo partly specified)	> 1200	> 6000	650
CC(=O)N[C@H](Cc1ccccc1)C(=O)N1CCC[C@H]1C(=O)N[C@@H](CCCN=C(N)N)B(O)O		9	
CC(=O)N[C@H](Cc1ccccc1)C(=O)N1CCC[C@H]1C(=O)N[C@@H](CCCn1nnnc1N)B1O[C@@H]2CC3CC(C3(C)C)[C@]2(C)O1 (stereo partly specified)	> 1200	6000	350
CC(=O)N[C@H](Cc1ccccc1)C(=O)N1CCC[C@H]1C(=O)N[C@@H](CCCNc1ncccn1)B1O[C@@H]2CC3CC(C3(C)C)[C@]2(C)O1 (stereo partly specified)	> 1200	> 6000	600
CC(=O)N[C@H](Cc1ccccc1)C(=O)N1CCC[C@H]1C(=O)N[C@@H](CCCNc1ccccn1)B1O[C@@H]2CC3CC(C3(C)C)[C@]2(C)O1 (stereo partly specified)	> 1200	> 6000	230
